How the values were obtained:
[1] = In vitro stability in saline; format: physicochemical; conditions: 37.0 °C, more than 48 h incubation
Protocol: (§1) The in vitro stability of ^64Cu-PSMA-CM was tested in 5% human serum albumin (HSA) and saline at 37.0 °C.
(§2) ^64Cu-PSMA-CM was incubated in saline or 5% human serum albumin (HSA) at 37 °C and the radiochemical purity was determined by radio-HPLC at different points in time (1 h, 4 h, 12 h, 24 h, and 48 h). For the stability in 5% HSA, 15 μL of mixture was taken out and precipitated by ethanol, filtered, and the supernatant was analyzed.

[2] = In vitro stability in 5% human serum albumin; format: in vitro ADME; conditions: 37.0 °C, more than 48 h incubation
Protocol: as §1, §2

[3] = Partition coefficient (octanol/PBS); format: physicochemical; conditions: octanol / PBS (0.1 M, pH 7.4)
Protocol: Amounts of 10 μL of ^64Cu-PSMA-CM in saline (0.37 MBq), 990 μL of phosphate-buffered saline (PBS, 0.1 M, pH 7.4), and 1mL of octanol were mixed in a tube. The mixture was vortexed for 3 min and centrifuged (3000 rpm × 5 min). Then, five samples (100 μL) from each phase were removed and the radioactivity was measured. The experiment was repeated three times. The partition coefficient value was calculated as below: P = (average of counts in octanol/average of counts in PBS), the value was expressed as log P ± SD.

[4] = test system: PSMA (+) 22Rv1 cells; assay: Cell uptake in 22Rv1 cells; format: cell-based, human; conditions: 120 min
Protocol: (§3) The 22Rv1 and PC-3 cell lines were plated on 24-well plates (2 × 10^5 cells/well). After incubating for 24 h, the medium was removed and washed with PBS (phosphate buffer saline, 0.01 M). Then, 500 μL medium with 74 KBq of ^64Cu-PSMA-CM was added to the well plates and co-incubated with cells at 37 °C for 10 min, 30 min, 60 min, and 120 min. The medium was then removed and the cells were washed twice with 1 mL of cold PBS. After that, cells were lysed with 1M NaOH, and then the NaOH solution was collected for analysis. For the blocking experiment, cells were co-incubated with ZJ-43 (1 µg/well), a PSMA inhibitor, for 120 min. Five samples of ^64Cu-PSMA-CM were taken out and were thought to be standard. The result was expressed as %IA/10^6 cells. For comparison, the cell uptake experiment of ^64Cu-PSMA-BCH in 22Rv1 cells was performed.

[5] = test system: PSMA (−) PC-3 cells; assay: Cell uptake in PC-3 cells; format: cell-based, human
Protocol: as §3

[6] = biological target: T1, PSMA (Homo sapiens, UniProt Q04609); assay: Binding affinity to PSMA on 22Rv1 cells (dissociation constant); conditions: 2 h at 37 °C, one-site total model
T1 construct: endogenous in cells; host or cells: 22Rv1 cells
Protocol: The dissociation constant of ^64Cu-PSMA-CM was performed on 22Rv1 cells by adding different concentrations of ^64Cu-PSMA-CM (0.185–74 kBq/mL, 400 μL/well, 4 well/group) to the 24-well plate (2 × 10^5 cells/well). After incubation for 2 h at 37 °C, the medium was removed, the cells were washed twice with cold PBS and then lysed by 0.5 mL NaOH. The radioactivity of NaOH solution was measured and the dissociation constant was calculated using the one-site total model in Graph Pad software (Graph Pad prism 5). Similarly, the dissociation constant of ^64Cu-PSMA-CM was determined with the same protocol.

[7] = Pharmacokinetics in blood; format: in vivo, mice
Protocol: The pharmacokinetics profile of ^64Cu-PSMA-CM in blood circulation was tested by injecting 3.7 MBq of ^64Cu-PSMA-CM into Balb/c male mice (n = 4).
An amount of 3.7 MBq (250 μL) of ^64Cu-PSMA-CM was intravenously injected into Babl/c male mice (n = 4). Blood was collected from the ophthalmic artery at different time points, then the radioactivity of blood was weighed and measured by a γ-counter. An injection of 2.5 μL was taken out as standard. The results were expressed as the percentage of injected dose per gram (%ID/g).
A two-phase decay Equation (1) in Graph Pad software (Graph Pad prism 5) was used to serve as the two-compartment model which models biological process of the probe by fitting the ID%/g versus to time of ^64Cu-PMA-CM to describe blood pharmacokinetics. Ct = Ae^−αt + Be^−βt(1) where A and B are relevant constants, and α and β are rate constants which were used to calculate as ln(2)/α and ln(2)/β for the half-life of distribution phase and elimination phase, respectively.

[8] = test system: mice bearing 22Rv1 tumors; assay: Biodistribution in 22Rv1 tumor model mice; format: in vivo; conditions: for Biodistribution, Liver / Biodistribution, Spleen / Biodistribution, Blood / Biodistribution, Brain / Biodistribution, Heart / Biodistribution, Kidney / Biodistribution, LI (large intestine) / Biodistribution, Lung / Biodistribution, Muscle / Biodistribution, tumor: 22Rv1 male mice
Protocol: Twelve 22Rv1 tumor model mice were randomly divided into four groups and then ^64Cu-PSMA-CM (200 μL, 0.74 MBq/mouse) was injected via tail vein. […] Organs of interest including blood, heart, liver, spleen, lung, kidney, small intestine, large intestine, muscle, brain, and 22Rv1 tumor were collected. The organs were then weighed and measured for their radioactivity. Five samples of the 1% injection volume were taken out as a standard. The final uptake values of each organ were expressed as the percentage of injected dose per gram (%ID/g).

[9] = test system: mice bearing 22Rv1 tumors; assay: Micro-PET imaging in mice bearing 22Rv1 xenograft tumors; format: in vivo
Protocol: An amount of 200 μL of ^64Cu-PSMA-CM (9.32 MBq) was injected into mice bearing 22Rv1 xenograft tumors via tail vein. For blocking, the mice were co-injected with 50 μg of ZJ-43. Imaging was performed on Super Nova PET/CT (PINGSENG, Shanghai, China). The mice were anaesthetized with 3% (v/v) isoflurane, then fixed on the bed at 4 h, 8 h, 12 h, 24 h, and 48 h p.i. Micro-PET scans were conducted with continuous 1% (v/v) isoflurane for 15 min. The images of ^64Cu-PSMA-CM were obtained at different time points and SUV mean values of regions of interest (ROIs) over the heart, kidney, muscle, liver, and tumor were collected. The ratio of tumor-to-non-target organs was then calculated at different time points. To better assess its […] in vivo, a comparison with ^64Cu-PSMA-BCH (5.55 MBq/mouse) of micro-PET imaging was performed in mice bearing 22Rv1 tumor models at 4 h p.i., 12 h p.i., and 24 h p.i. The mean standardized uptake value (SUVmean) in each organ was calculated according to following Formula (2). SUV = Activity VOI (MBq/mL)/Injected dose (MBq) × Body weight (g)(2)

[10] = blood activity–time profile, in Figure 5
[11] = blood activity–time profile, in Figure 5, in h
[12] = blood, mice, 3.7 MBq i.v., two-phase decay fit

T1 sequence (Q04609 whole entry): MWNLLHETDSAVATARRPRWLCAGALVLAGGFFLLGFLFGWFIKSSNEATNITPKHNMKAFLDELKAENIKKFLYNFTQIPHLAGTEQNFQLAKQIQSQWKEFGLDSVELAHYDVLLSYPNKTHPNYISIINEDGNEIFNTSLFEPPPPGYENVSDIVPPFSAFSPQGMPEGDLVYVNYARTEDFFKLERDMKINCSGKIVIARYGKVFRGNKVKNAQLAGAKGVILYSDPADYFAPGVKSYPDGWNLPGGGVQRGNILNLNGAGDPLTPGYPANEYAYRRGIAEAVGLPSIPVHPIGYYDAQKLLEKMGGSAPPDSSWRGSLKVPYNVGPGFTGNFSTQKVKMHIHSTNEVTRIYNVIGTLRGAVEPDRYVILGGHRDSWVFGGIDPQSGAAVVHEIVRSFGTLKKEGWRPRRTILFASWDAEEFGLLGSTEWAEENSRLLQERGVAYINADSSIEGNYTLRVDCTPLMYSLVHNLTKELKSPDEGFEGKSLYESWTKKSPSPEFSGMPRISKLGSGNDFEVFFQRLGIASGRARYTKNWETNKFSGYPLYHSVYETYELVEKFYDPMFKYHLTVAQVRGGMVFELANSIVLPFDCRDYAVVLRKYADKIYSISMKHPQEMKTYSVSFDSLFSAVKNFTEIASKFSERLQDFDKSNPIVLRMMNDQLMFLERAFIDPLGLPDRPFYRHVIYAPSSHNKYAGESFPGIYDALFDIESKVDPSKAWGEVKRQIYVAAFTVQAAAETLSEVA

- radiochemical purity (RCP) after incubation in saline [1]: over 95%
- radiochemical purity (RCP) after incubation in 5% HSA [2]: over 95%
- log P [3]: −2.25 ± 0.05
- Kd [6]: 4.58 nM
- KFast [7, 10]: 4.287
- KSlow [7, 10]: 0.1765
- Half Life (Fast) [7, 11]: 0.1617
- Half Life (Slow) [7, 11]: 3.927
- half-life of the distribution phase [7, 12]: 9.6 min
- half-life of the elimination phase [7, 12]: 3.93 h
- highest uptake in 22Rv1 tumor ([8]; 22Rv1-beared male mice, 24 h p.i.): 14.29 ± 1.44 %ID/g
- uptake in kidneys ([8]; 22Rv1-beared male mice, within 1 h): 95.84 ± 3.33 %ID/g
- Biodistribution, Liver [8]: 8.50±1.06 ID%/g
- Biodistribution, Spleen [8]: 2.65±0.55 ID%/g
- Biodistribution, Blood ([8]; 1 h): 16.95 ± 3.05 ID%/g
- Biodistribution, Brain ([8]; 1 h): 0.69±0.07 ID%/g
- Biodistribution, Heart ([8]; 1 h): 4.49±0.47 ID%/g
- Biodistribution, Kidney ([8]; 1 h): 95.84±3.33 ID%/g
- Biodistribution, LI (large intestine) ([8]; 1 h): 3.75±0.11 ID%/g
- Biodistribution, Liver ([8]; 1 h): 5.34 ± 1.13 ID%/g
- Biodistribution, Lung ([8]; 1 h): 9.91±0.43 ID%/g
- Biodistribution, Muscle ([8]; 1 h): 1.15±0.09 ID%/g
- Biodistribution, Spleen ([8]; 1 h): 8.48±3.35 ID%/g
- Biodistribution, tumor ([8]; 1 h): 8.09±1.66 ID%/g
- Biodistribution, Blood ([8]; 6 h): 12.33±2.83 ID%/g
- Biodistribution, Brain ([8]; 6 h): 0.47±0.05 ID%/g
- Biodistribution, Heart ([8]; 6 h): 4.16±0.62 ID%/g
- Biodistribution, Kidney ([8]; 6 h): 26.78±0.69 ID%/g
- Biodistribution, LI (large intestine) ([8]; 6 h): 2.85±0.06 ID%/g
- Biodistribution, Liver ([8]; 6 h): 5.24±0.59 ID%/g
- Biodistribution, Lung ([8]; 6 h): 8.47±1.45 ID%/g
- Biodistribution, Muscle ([8]; 6 h): 1.22±0.25 ID%/g
- Biodistribution, Spleen ([8]; 6 h): 4.63±1.13 ID%/g
- Biodistribution, tumor ([8]; 6 h): 8.51±1.99 ID%/g
- Biodistribution, Blood ([8]; 12 h): 5.41±0.94 ID%/g
- Biodistribution, Brain ([8]; 12 h): 0.44±0.06 ID%/g
- Biodistribution, Heart ([8]; 12 h): 1.96±0.35 ID%/g
- Biodistribution, Kidney ([8]; 12 h): 14.19±1.40 ID%/g
- Biodistribution, LI (large intestine) ([8]; 12 h): 4.32±0.69 ID%/g
- Biodistribution, Lung ([8]; 12 h): 6.28±0.72 ID%/g
- Biodistribution, Muscle ([8]; 12 h): 1.24±0.77 ID%/g
- Biodistribution, tumor ([8]; 12 h): 14.29±1.44 ID%/g
- Biodistribution, Blood ([8]; 24 h): 2.83±0.41 ID%/g
- Biodistribution, Heart ([8]; 24 h): 0.95±0.21 ID%/g
- Biodistribution, Kidney ([8]; 24 h): 8.92±0.41 ID%/g
- Biodistribution, LI (large intestine) ([8]; 24 h): 2.81±0.35 ID%/g
- Biodistribution, Liver ([8]; 24 h): 6.14±0.23 ID%/g
- Biodistribution, Lung ([8]; 24 h): 5.60±0.23 ID%/g
- Biodistribution, Spleen ([8]; 24 h): 2.31±0.26 ID%/g
- Biodistribution, tumor ([8]; 24 h): 10.57±1.23 ID%/g
- SUV mean value in 22Rv1 tumor (highest accumulation) ([9]; 24 h p.i.): 1.88 ± 0.04
- uptake in tumors and kidneys when co-injected with excess ZJ-43 ([9]; ZJ-43 50 μg, p < 0.001): significantly decreased
SMILES: O=C([O-])CN1CCN(CC(=O)[O-])CCN(CC(=O)NC(CNC(CC(=O)NC[C@H]2CC[C@H](C(=O)N[C@H](Cc3ccc4ccccc4c3)C(=O)NCCCC[C@H](NC(=O)N[C@@H](CCC(=O)O)C(=O)O)C(=O)O)CC2)C(=O)NCCOCCOCCNC(=O)CCN2C(=O)C=CC2=O)Cc2ccccc2)CC1.[64Cu+2] (stereo partly drawn) [^64Cu-PSMA-CM]
- highest uptake value in PSMA (+) 22Rv1 cells [4]: 5.45 ± 0.42 IA%/10^6 cells
- uptake in 22Rv1 cells [4]: 5.45 ± 0.42 %IA/10^6 cells
- uptake in 22Rv1 cells blocked by ZJ-43 ([4]; co-incubated with ZJ-43 (1 µg/well)): 3.38 ± 0.04 IA%/10^6 cells
- uptake in PSMA (−) PC-3 cells ([5]; 120 min): 1.79 ± 0.20 IA%/10^6 cells
- blocking of uptake in PC-3 cells by excess of ZJ-43 ([5]; p > 0.05): cannot be blocked

— article PMC9143078, “An Albumin-Binding PSMA Ligand with Higher Tumor Accumulation for PET Imaging of Prostate Cancer” (Pharmaceuticals, 2022)
